In patent publication US20110152313A1 (MACQUARIE UNIVERSITY, priority 2008, published 2011) one finds remaining activity data, which are given here for three molecules.

What is called remaining activity is the activity still measured, relative to the control. Low readings indicate little activity left, high ones much activity left.

What all share (experiment): kinase binding screen (kinase-tagged T7 phage, qPCR), % Ctrl
In general terms: Real-time PCR tracks product formation cycle by cycle.

The target of experiment [1] is T1, IRAK3 (Homo sapiens, UniProt Q9Y616).
T1 sequence (Q9Y616 1-596): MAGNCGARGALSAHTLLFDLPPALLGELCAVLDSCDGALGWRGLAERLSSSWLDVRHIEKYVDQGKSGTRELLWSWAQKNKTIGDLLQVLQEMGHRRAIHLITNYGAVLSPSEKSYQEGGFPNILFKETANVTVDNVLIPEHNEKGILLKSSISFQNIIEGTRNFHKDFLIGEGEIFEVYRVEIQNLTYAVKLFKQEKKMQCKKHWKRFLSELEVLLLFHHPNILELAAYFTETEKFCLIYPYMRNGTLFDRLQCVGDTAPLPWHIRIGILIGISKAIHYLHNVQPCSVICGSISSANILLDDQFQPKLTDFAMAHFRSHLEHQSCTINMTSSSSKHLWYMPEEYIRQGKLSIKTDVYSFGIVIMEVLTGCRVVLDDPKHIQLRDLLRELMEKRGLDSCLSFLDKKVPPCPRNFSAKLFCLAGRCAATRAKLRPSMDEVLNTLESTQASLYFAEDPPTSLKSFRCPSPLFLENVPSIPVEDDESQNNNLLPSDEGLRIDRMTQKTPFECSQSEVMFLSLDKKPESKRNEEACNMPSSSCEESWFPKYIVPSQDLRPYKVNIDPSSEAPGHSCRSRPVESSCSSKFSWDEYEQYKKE
How it is done:
(§1) Percentage kinase inhibition at a set concentration was performed by methods well known in the prior art (Fabian, M. A. et al. Nat. Biotechnol. 2005, 23, 329; Karaman et al. (2008) Nat. Biotechnol. […], 26, 127). Briefly, kinase-tagged T7 phage strains were grown in parallel in 24-well blocks in an E. coli host derived from the BL21 strain. E. coli were grown to log-phase and infected with T7 phage from a frozen stock (multiplicity of infection=0.4) and incubated with shaking at 32° C. until lysis (90-150 minutes). The lysates were centrifuged (6,000×g) and filtered (0.2 μm) to remove cell debris. […] The liganded beads were blocked with excess biotin and washed with blocking buffer (SeaBlock (Pierce); 1% BSA, 0.05% Tween 20, 1 mM DTT) to remove unbound ligand and to reduce non-specific phage binding. […] Test compounds were prepared as 40× stocks in 100% DMSO and directly diluted into the assay. All reactions were performed in polypropylene 384-well plates in a final volume of 0.04 mL. […] The kinase concentration in the eluates was measured by qPCR.

Experiment [2] has as its target PIM2 (Homo sapiens, UniProt Q9P1W9). How it is done: as §1
In experiment [3] the target is T2, SgK085 (Homo sapiens, UniProt Q86YV6).
T2 sequence (Q86YV6 1-388): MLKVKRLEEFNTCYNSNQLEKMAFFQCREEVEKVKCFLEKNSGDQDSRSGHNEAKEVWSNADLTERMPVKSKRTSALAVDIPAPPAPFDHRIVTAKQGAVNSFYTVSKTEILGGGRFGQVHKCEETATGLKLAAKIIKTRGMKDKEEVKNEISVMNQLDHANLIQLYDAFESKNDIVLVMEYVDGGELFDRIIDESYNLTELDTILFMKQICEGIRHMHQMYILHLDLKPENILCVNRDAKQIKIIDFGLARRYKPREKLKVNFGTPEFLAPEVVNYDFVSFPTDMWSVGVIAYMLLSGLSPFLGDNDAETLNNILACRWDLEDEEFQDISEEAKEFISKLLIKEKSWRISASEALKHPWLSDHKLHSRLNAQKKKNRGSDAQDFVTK
How it is done:
as §1

Experiment [4] concerns the target T3, ULK3 (Homo sapiens, UniProt Q6PHR2).
T3 sequence (Q6PHR2 1-472): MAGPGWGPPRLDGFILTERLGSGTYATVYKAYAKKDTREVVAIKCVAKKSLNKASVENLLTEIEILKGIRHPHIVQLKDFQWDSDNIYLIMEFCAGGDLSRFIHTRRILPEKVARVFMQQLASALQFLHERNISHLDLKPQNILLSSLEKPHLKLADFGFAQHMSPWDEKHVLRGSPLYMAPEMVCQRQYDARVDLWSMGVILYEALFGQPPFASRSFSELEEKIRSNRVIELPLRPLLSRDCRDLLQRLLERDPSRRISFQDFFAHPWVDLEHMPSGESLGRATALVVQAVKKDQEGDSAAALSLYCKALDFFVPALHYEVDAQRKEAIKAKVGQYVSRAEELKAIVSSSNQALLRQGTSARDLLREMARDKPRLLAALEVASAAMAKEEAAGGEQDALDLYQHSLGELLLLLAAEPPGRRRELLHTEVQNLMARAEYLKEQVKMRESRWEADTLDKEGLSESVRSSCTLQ
How it is done: as §1

Sequence of PIM2 (Q9P1W9 whole entry, species assumed): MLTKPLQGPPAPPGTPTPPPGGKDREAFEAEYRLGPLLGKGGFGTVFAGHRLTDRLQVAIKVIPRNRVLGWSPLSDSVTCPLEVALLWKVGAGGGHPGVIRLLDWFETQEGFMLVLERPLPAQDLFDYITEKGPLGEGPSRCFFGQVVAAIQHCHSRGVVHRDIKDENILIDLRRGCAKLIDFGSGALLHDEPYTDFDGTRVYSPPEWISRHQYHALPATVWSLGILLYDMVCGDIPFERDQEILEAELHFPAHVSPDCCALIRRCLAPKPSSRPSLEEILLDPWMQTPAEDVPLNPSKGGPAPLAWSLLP

As for `Nc1nc2c(-c3ccccn3)nccc2[nH]1` [drawing 35, 4-(pyrid-2-yl)-1H-imidazo[4,5-c]pyridin-2-amine], the remaining activity at 1 µM in experiment [1] amounted to 88%; in experiment [2], 100%; in experiment [3], 43%; in experiment [4] it was 51%.

On to `Nc1nc2c(-c3cc(Br)c(Br)[nH]3)nccc2[nH]1` [Ageladine A, ageladine A, reference compound], for which the remaining activity at 1 µM is 85% in experiment [1], 56% in experiment [2], 89% in experiment [3] and 82% in experiment [4]. For the same molecule, the remaining activity at 10 µM in experiment [1] (10 μM) is 51%; in experiment [2] (10 μM), 21%; in experiment [3] (10 μM), 90%; in experiment [4] (10 μM), 81%.

Consider `Nc1nc2c(-c3cnc4ccccc4c3)nccc2[nH]1` [drawing 36, 4-(quinolin-3-yl)-1H-imidazo[4,5-c]pyridin-2-amine], for which the remaining activity at 1 µM in experiment [1] is 56%; in experiment [2], 100%; in experiment [3], 92%; in experiment [4], 87%.
